Reference: patent publication US20230242496A1, “SOX11 INHIBITORS FOR TREATING MANTLE CELL LYMPHOMA” (Icahn School of Medicine At Mount Sinai, priority 2020, published 2023)

Assays:
(His)6-SOX11-DBD protein = molecular target: T1, (His)6-SOX11-DBD protein (Homo sapiens, UniProt P35716); experiment: Surface Plasmon Resonance (SPR) assay; type: binding; settings: immobilized recombinant (His)6-SOX11-DBD, 25° C., compounds 5-40 μM, mean of three experiments
T1 construct: Recombinant (His)6-SOX11-DBD protein was immobilized
T1 sequence (P35716 49-117 limits assumed): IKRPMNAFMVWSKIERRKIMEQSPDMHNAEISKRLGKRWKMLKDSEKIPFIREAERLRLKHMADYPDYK

Jeko-1 (SOX11+) = experiment: Cell viability assay (CellTiter-Blue resazurin reduction); type: cell-based; settings: JeKo-1 cells; for IC50: 0-40 μM
Method in brief: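 Cells were exposed to compound for 72 h, then resazurin reduction (CellTiter-Blue, 2 h) was read by fluorescence and converted to viable cell number via a standard curve. Viability was normalised to 0.2% DMSO-treated cells. IC50 came from a sigmoidal dose-response fit, three separate experiments.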

[1] = Homo sapiens, JeKo-1, 72 h, 20 μM compound, normalized to 0.2% DMSO

| SMILES | Kd ((His)6-SOX11-DBD protein) [µM] | IC50 (Jeko-1 (SOX11+); Homo sapiens, JeKo-1, 72 h) [µM] | viability at 20 µM (Jeko-1 (SOX11+); [1]) [%] | Jeko-1 Viability at 20 μM (%) (Jeko-1 (SOX11+); 20 μM compound, 72 hours, normalized to 0.2% DMSO, 20 µM) | IC50 (Jeko-1 (SOX11+); 72 hours) [µM] |
| --- | --- | --- | --- | --- | --- |
| CC1Sc2ccc(C(=O)ONc3ccc(S(=O)(=O)Nc4ccccc4)nc3)cc2NC1=O (stereo not drawn) | 5.07 | > 20 | 90 | – | – |
| CC1Sc2ccc(C(=O)Nc3ccc(S(=O)(=O)N4CCCC4)c(Cl)c3)cc2N(C)C1=O (stereo not drawn) | 20.4 | – | 8.44 | – | – |
| CC1Sc2ccc(C(=O)Nc3ccc(S(=O)(=O)NC4CCCCC4)cc3)cc2NC1=O (stereo not drawn) | 19 | 8 | 30.4 | – | – |
| c1ccc(COc2ccc(CNc3ccc4cnccc4c3)cc2)cc1 | 33.7 | – | 1.2 | – | – |
| O=C1COc2ccc(C(=O)Nc3ccc(S(=O)(=O)Nc4ccccc4)cc3)cc2N1 | 17.9 | > 20 | 61.1 | – | – |
| CC1Sc2ccc(C(=O)Nc3ccc(S(=O)(=O)Nc4ccccc4)cc3Cl)cc2NC1=O (stereo not drawn) | 3.1 | < 20 | 36.2 | – | – |
| CC1Sc2ccc(C(=O)Nc3ccc(S(=O)(=O)N(C)C)cc3)cc2NC1=O (stereo not drawn) | 15.4 | 15 | 19.6 | – | – |
| CCN(CC)S(=O)(=O)c1cccc(NC(=O)c2ccc3c(c2)NC(=O)C(C)S3)c1 (stereo not drawn) | 31.2 | 8 | 0.44 | – | – |
| CC1Sc2ccc(C(=O)Nc3cccc(S(=O)(=O)Nc4ccc(F)cc4)c3)cc2NC1=O (stereo not drawn) | 8.48 | > 20 | 55.6 | – | – |
| CC1Sc2ccc(C(=O)Nc3cccc(S(=O)(=O)N4CCNCC4)c3)cc2NC1=O (stereo not drawn) | 131 | > 20 | 114 | – | – |
| O=C(Nc1ccc(S(=O)(=O)Nc2ccccc2)cc1)c1ccc2cn[nH]c2c1 | 48.4 | 10 | 17.2 | – | – |
| CC1Sc2ccc(C(=O)Nc3ccc(S(=O)(=O)Nc4ccccc4)cc3)cc2NC1=O (stereo not drawn) [drawing 468] | 38 | – | – | 0.83 | 12.5 |
| CC1Sc2ccc(NC(=O)c3ccc(S(=O)(=O)Nc4ccccc4)c(F)c3)cc2NC1=O (stereo not drawn) | 16.1 | > 20 | 75.8 | – | – |
| CC1Sc2ccc(C(=O)Nc3cccc(S(=O)(=O)Nc4ccncc4)c3)cc2NC1=O (stereo not drawn) | 21.2 | > 20 | 95.8 | – | – |
| Cc1ccc(NC(=O)c2ccc3c(c2)NC(=O)CS3)cc1S(=O)(=O)Nc1cccc(Cl)c1 | 3.37 | 10 | 26.3 | – | – |
| CC1Sc2ccc(C(=O)Nc3ccccc3S(=O)(=O)Nc3ccccc3)cc2NC1=O (stereo not drawn) | 29.2 | < 20 | 14.2 | – | – |
| CC1Sc2ccc(C(=O)Nc3ccc(S(=O)(=O)Nc4ccccc4)c(Cl)c3)cc2NC1=O (stereo not drawn) | 4.36 | 5 | 1.8 | – | – |
| O=C1Cc2ccc(C(=O)Nc3ccc(S(=O)(=O)Nc4ccccc4)cc3)cc2N1 | 20.9 | > 20 | 81.5 | – | – |
| Cc1cccc(NS(=O)(=O)c2cccc(NC(=O)c3ccc4c(c3)NC(=O)C(C)S4)c2)c1 (stereo not drawn) | 2.47 | 10 | 3.73 | – | – |

| SMILES | Kd ((His)6-SOX11-DBD protein) [µM] | IC50 (Jeko-1 (SOX11+); Homo sapiens, JeKo-1, 72 h) [µM] | viability at 20 µM (Jeko-1 (SOX11+); [1]) [%] | Jeko-1 Viability at 20 μM (%) (Jeko-1 (SOX11+); 20 μM compound, 72 hours, normalized to 0.2% DMSO, 20 µM) | IC50 (Jeko-1 (SOX11+); 72 hours) [µM] |
| --- | --- | --- | --- | --- | --- |
| CC1Sc2ccc(C(=O)Nc3ccc(S(=O)(=O)N4CCCC4)cc3)cc2NC1=O (stereo not drawn) | 138 | 8.5 | 2.97 | – | – |
| O=C(CCc1c[nH]cn1)Nc1cccc(C(=O)Nc2ccc(S(=O)(=O)Nc3ccccc3)cc2)c1 | 6.46 | > 20 | 90.7 | – | – |
| c1ccc(COc2ccc(CNc3ccc4cncnc4c3)cc2)cc1 | 5.2 | – | 1.09 | – | – |
| C[C@@H]1Sc2ccc(C(=O)Nc3ccc(S(=O)(=O)Nc4ccccc4)cc3)cc2NC1=O | 31.9 | 12.5 | 12.8 | – | – |
| O=C(Nc1cccc(S(=O)(=O)N2CCCCC2)c1)c1ccc2c(c1)CCCS2 | 3.01 | – | 54.2 | – | – |
| CC1Sc2ccc(C(=O)Nc3ccc(S(=O)(=O)N(C)c4ccccc4)cc3)cc2NC1=O (stereo not drawn) | 1.47 | 9 | 18 | – | – |
| Cc1ccc(NS(=O)(=O)c2cccc(NC(=O)c3ccc4c(c3)NC(=O)C(C)S4)c2)cc1 (stereo not drawn) | 6.08 | 7 | 2.16 | – | – |
| CC1Sc2ccc(C(=O)Nc3ccc(S(=O)(=O)Nc4cccc(C(F)(F)F)c4)cc3)cc2NC1=O (stereo not drawn) | 5.78 | 21 | 9.74 | – | – |
| O=C(Nc1ccc(CNc2ccccc2)cc1)c1ccc2c(c1)CCCS2 | 13.5 | – | 51.9 | – | – |
| CC1Sc2ccc(C(=O)Nc3cccc(S(=O)(=O)N4CCCC4)c3)cc2N(C)C1=O (stereo not drawn) | 346 | – | 13.9 | – | – |
| CCN(CC)S(=O)(=O)c1ccc(NC(=O)c2ccc3c(c2)NC(=O)C(C)S3)cc1 (stereo not drawn) | 30.9 | 7.5 | 0.6 | – | – |
| O=C(Nc1cccc(S(=O)(=O)N2CCCC2)c1)c1ccc2c(c1)CCCS2 | 1.98 | – | 27.1 | – | – |
| CC1Sc2ccc(C(=O)Nc3ccc(S(=O)(=O)Nc4ccccc4C(F)(F)F)cc3)cc2NC1=O (stereo not drawn) | 1.1 | 10 | 8.61 | – | – |
| CC1Sc2ccc(C(=O)Nc3ccc(S(=O)(=O)N4CCCCCC4)cc3)cc2NC1=O (stereo not drawn) | 2.63 | 7.5 | 0.46 | – | – |
| c1ccc(COc2cccc(CNc3ccc4cnccc4c3)c2)cc1 | 47.8 | – | 1.12 | – | – |
| O=C(Nc1ccc(S(=O)(=O)N2CCCCC2)c(Cl)c1)c1ccc2c(c1)CCCS2 | 17.6 | – | 35.1 | – | – |
| CC1Sc2ccc(C(=O)Nc3ccc(S(=O)(=O)Nc4cccc(F)c4)cc3)cc2NC1=O (stereo not drawn) | 1.26 | < 20 | 28.2 | – | – |
| CCC1Sc2ccc(C(=O)Nc3ccc(S(=O)(=O)Nc4ccccc4)cc3)cc2NC1=O (stereo not drawn) | 1.43 | 12 | 36.7 | – | – |
| CC1Sc2ccc(C(=O)Nc3ccc(S(=O)(=O)Nc4cc[nH]c(=O)c4)cc3)cc2NC1=O (stereo not drawn) | 24.8 | 18 | 34.8 | – | – |
